The record followed here is US7879846B2, “Serine hydrolase inhibitors” (Kyorin Pharmaceutical Co.., Ltd., priority 2006, dated 2011).

The target of the experiment is T1, Human sputum neutrophil elastase (Homo sapiens, UniProt P08246).
T1 construct: purchased Elastin Products Co; host or cells: human sputum (natural source)
T1 sequence (P08246 30-247 limits assumed): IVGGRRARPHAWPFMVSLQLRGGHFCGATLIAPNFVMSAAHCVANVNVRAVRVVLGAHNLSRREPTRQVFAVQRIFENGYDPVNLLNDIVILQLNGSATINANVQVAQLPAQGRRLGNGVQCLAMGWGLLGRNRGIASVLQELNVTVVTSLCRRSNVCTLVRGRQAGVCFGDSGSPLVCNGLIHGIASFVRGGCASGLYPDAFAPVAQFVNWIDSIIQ
Put plainly: Inhibitor IC50 against human neutrophil elastase (fluorogenic MeOSuc-AAPV-AMC substrate). It is filed as biochemical. The conditions noted are these: 20 min preincubation, read-out: HNE IC50. As for the experimental part:
Determination of Inhibitor IC50 Values Against Human Neutrophil Elastase
Human sputum neutrophil elastase (Elastin Products Co.) was diluted into Assay Buffer A (200 mM Tris pH 7.4, 1 mg/ml BSA) to a working concentration of 0.55 U/ml. […] DMSO alone was used as the negative control. MeOSuc-AAPV-AMC (Bachem) substrate was dissolved in DMSO to 20 mM and further diluted to 1 mM in Assay Buffer A immediately before use. Substrate was added to the elastase assay at a final concentration of 1×10^−4 M. The reaction was allowed to proceed for 20 minutes at room temperature and then quenched with acetic acid at a final concentration of 3% (v/v). […] Fluorescence intensity versus inhibitor concentration was plotted and fit to the Hill equation to quantify IC50 values.
A word on the IC50: it is the midpoint of a concentration-inhibition curve. As for `CCc1cccc2nc(-c3cccnc3N3CCN(CCC#N)CC3)oc(=O)c12` [Compound 93], the half-maximal inhibitory concentration (IC50) was under 15 nM.
Regarding `CCc1cccc2nc(-c3cccnc3N3CCN(CCOC)CC3)oc(=O)c12` [Compound 89], the IC50 was under 15 nM.
In the case of `CCc1cc(OC)cc2nc(-c3cccnc3N3CCC(S(=O)(=O)O)CC3)oc(=O)c12` [Compound 209] it was 16 to 60 nM; in that of `CCc1cc(OC)cc2nc(-c3cccnc3N3CC[C@@H](N4CCS(=O)(=O)CC4)C3)oc(=O)c12` [Compound 269], under 15 nM.
Turning to `CCc1cc(OC)cc2nc(-c3cccnc3N3CCN(CCOCCO)CC3)oc(=O)c12` [Compound 210], the IC50 was 16 to 60 nM.
As to `CCOCCN1CCN(c2ncccc2-c2nc3cc(OC)cc(CC)c3c(=O)o2)CC1` [Compound 203], the half-maximal inhibitory concentration (IC50) is under 15 nM.
The figure for `COc1cc(C2CCC2)c2c(=O)oc(-c3cccnc3N3CCN(CCN(C)C)CC3)nc2c1` [Compound 186] is 61 to 150 nM; for `CCc1cccc2nc(-c3cccnc3N3CC[C@H](N(C)C)C3)oc(=O)c12` [Compound 91] it is under 15 nM.
In the case of `COc1cc(C(C)C)c2c(=O)oc(-c3cnn(C)c3N(C)CCN(C)C)nc2c1` [Compound 124] it was over 150 nM; in that of `Cc1cccc2nc(-c3cccnc3Oc3ccc4c(c3)OCO4)oc(=O)c12` [Compound 37], 16 to 60 nM.
As for `CCc1cc(OC)cc2nc(-c3cccnc3N(C)CC3CCN(C)CC3)oc(=O)c12` [Compound 242], the IC50 was under 15 nM.
The figure for `Cc1cccc2nc(-c3cccnc3OCCOCCOCCOCCO)oc(=O)c12` [Compound 57] is 61 to 150 nM; for `CCCc1cc(OC)cc2nc(-c3cccnc3N3CCN(CCOC)CC3)oc(=O)c12` [Compound 150] it is 61 to 150 nM; for `COc1cc(C(C)C)c2c(=O)oc(-c3cccnc3N(C)C3CCN(C)C3)nc2c1` (stereo not drawn) [Compound 117] it is 61 to 150 nM.
For `O=c1oc(-c2cccnc2Oc2ccc(Cl)cc2)nc2cccc(Cl)c12` [Compound 25], the IC50 lay within 16 to 60 nM.
In the case of `COc1cc(C2CCC2)c2c(=O)oc(-c3cccnc3N3CCN(CCN4CCOCC4)CC3)nc2c1` [Compound 187] it was over 150 nM; in that of `CCc1cc(OC)cc2nc(-c3cccnc3N3CCN(CCC(=O)O)CC3)oc(=O)c12` [Compound 213], under 15 nM; in that of `O=c1oc(-c2ccccn2)nc2cccc(Cl)c12` [Compound 12], 61 to 150 nM.
The figure for `O=c1oc(-c2ccccn2)nc2cc(Cl)cc(Cl)c12` [Compound 11] is over 150 nM; for `Cc1cccc2nc(-c3cccc[n+]3[O-])oc(=O)c12` [Compound 73] it is over 150 nM; for `CCc1cc(OC)cc2nc(-c3cccnc3N3C[C@H](CNC4CC4)[C@H](F)C3)oc(=O)c12` [Compound 258] it is 16 to 60 nM.
Regarding `CCc1cc(OC)cc2nc(-c3cccnc3N3CCC(CCN4CCOCC4)CC3)oc(=O)c12` [Compound 247], the half-maximal inhibitory concentration (IC50) is under 15 nM.
In the case of `O=c1oc(-c2cccnc2-n2ccnc2)nc2cccc(Cl)c12` [Compound 71] it was over 150 nM; in that of `O=c1oc(-c2cccnc2-n2ccnc2)nc2cccc(C(F)(F)F)c12` [Compound 64], under 15 nM; in that of `Cc1ccc(Sc2ncccc2-c2nc3cccc(C)c3c(=O)o2)cc1` [Compound 24], over 150 nM.
The figure for `CCc1cc(OC)cc2nc(-c3cccnc3N(C)C3CCN(C)C3)oc(=O)c12` (stereo not drawn) [Compound 138] is 16 to 60 nM; for `CCCN1CCN(c2ncccc2-c2nc3cc(OC)cc(CC)c3c(=O)o2)CC1` [Compound 222] it is 16 to 60 nM; for `O=c1oc(-c2ccccn2)nc2ccccc12` [Compound 17] it is over 150 nM.
Consider `CCOC(=O)CCN1CCN(c2ncccc2-c2nc3cc(OC)cc(CC)c3c(=O)o2)CC1` [Compound 221], for which the half-inhibitory concentration (IC50) is 16 to 60 nM.
The figure for `Cc1cccc2nc(-c3cccnc3N3CCN(CCN4CCOCC4)CC3)oc(=O)c12` [Compound 179] is 16 to 60 nM.
On to `O=c1oc(-c2cccnc2Oc2ccccc2)nc2cc(Cl)cc(Cl)c12` [Compound 14], for which the concentration for half-maximal inhibition (IC50) was over 150 nM.
In the case of `CCc1cc(OC)cc2nc(-c3cccnc3N3CCC(N4CCCC4)CC3)oc(=O)c12` [Compound 215], the IC50 is under 15 nM.
On to `COc1cc(C2CCC2)c2c(=O)oc(-c3cccnc3N3CC[C@H](N(C)C)C3)nc2c1` [Compound 176], for which the concentration for half-maximal inhibition (IC50) is 61 to 150 nM.
The figure for `CCc1cc(OC)cc2nc(-c3cccnc3N3CC[C@@H](N(C)C)C3)oc(=O)c12` [Compound 131] is under 15 nM.
Turning to `CCc1cc(OC)cc2nc(-c3cccnc3N3CCC(N(C)C)CC3)oc(=O)c12` [Compound 220], the IC50 was 16 to 60 nM.
In the case of `CCc1cc(OC)cc2nc(-c3cccnc3N3CCN(C(C)C)CC3)oc(=O)c12` [Compound 201] it was 16 to 60 nM; in that of `CCc1cc(OC)cc2nc(-c3cccnc3N3CCC(O)CC3)oc(=O)c12` [Compound 214], under 15 nM.
The figure for `COc1cc(C(C)C)c2c(=O)oc(-c3cccnc3N3CCCN(C)CC3)nc2c1` [Compound 122] is 61 to 150 nM.
In the case of `CCCc1cc(OC)cc2nc(-c3cccnc3N(C)C3CCN(C)C3)oc(=O)c12` (stereo not drawn) [Compound 146] it was over 150 nM.
As for `Cc1cccc2nc(-c3cccnc3OCCOCCOCCOCc3ccccc3)oc(=O)c12` [Compound 56], the half-maximal inhibitory concentration (IC50) is over 150 nM.
As to `CCc1cc(OC)cc2nc(-c3cccnc3N(C)CCN(C)C)oc(=O)c12` [Compound 239], the IC50 was under 15 nM.
For `COc1cc(C(C)C)c2c(=O)oc(-c3cccnc3N3CC[N+](C)(CC(N)=O)CC3)nc2c1` [Compound 129], the IC50 is 61 to 150 nM.
In the case of `CCSc1ncccc1-c1nc2cccc(C)c2c(=O)o1` [Compound 40] it was over 150 nM; in that of `CCc1cccc2nc(-c3cccnc3N(C)C3CCN(C)C3)oc(=O)c12` (stereo not drawn) [Compound 153], 16 to 60 nM.
The figure for `CCN(CC)CC1CN(c2ncccc2-c2nc3cccc(C)c3c(=O)o2)CCO1` (stereo not drawn) [Compound 60] is over 150 nM.
The figure for `CCOC(=O)CN1CCN(c2ncccc2-c2nc3cc(OC)cc(CC)c3c(=O)o2)CC1` [Compound 196] is under 15 nM; for `CCc1cc(OC)cc2nc(-c3cccnc3N3CC[C@@H](N(C)CCOC)C3)oc(=O)c12` [Compound 265] it is under 15 nM; for `Cc1cccc2nc(-c3cccnc3-n3cc[n+](C)c3)oc(=O)c12` [Compound 65] it is over 150 nM.
On to `CCc1cc(OC)cc2nc(-c3cccnc3N3CC4(C)CN(C)CC(C)(C3)C4O)oc(=O)c12` (stereo not drawn) [Compound 255], for which the 50% inhibitory concentration (IC50) was under 15 nM.
Turning to `COc1cc(C(C)C)c2c(=O)oc(-c3cccnc3N3CC[C@@H](N(C)C)C3)nc2c1` [Compound 110], the IC50 was in the range of 61 to 150 nM.
In the case of `CCc1cccc2nc(-c3cccnc3N3CC[N+](C)(CC4CC4)CC3)oc(=O)c12` [Compound 103], the IC50 was under 15 nM.
Consider `CCc1cccc2nc(-c3cccnc3-n3cc[n+](Cc4ccc(Cl)cc4)c3)oc(=O)c12` [Compound 94], for which the IC50 was in the range of 16 to 60 nM.
With `COc1cc(C(C)C)c2c(=O)oc(-c3cnn(C)c3N3CC[C@H](N(C)C)C3)nc2c1` [Compound 126], the IC50 was over 150 nM.
The figure for `COCCN1CCN(c2c(-c3nc4cc(OC)cc(C(C)C)c4c(=O)o3)cnn2C)CC1` [Compound 119] is over 150 nM.
Take `O=c1oc(-c2cccs2)nc2ccccc12` [Compound 8]: the half-inhibitory concentration (IC50) was over 150 nM.
For `CCc1cc(OC)cc2nc(-c3cccnc3N3CCCC(N(C)C)C3)oc(=O)c12` (stereo not drawn) [Compound 212], the IC50 was in the range of 16 to 60 nM.
With `Cc1cccc2nc(-c3cccnc3N3CC[C@H](N(C)C)C3)oc(=O)c12` [Compound 177], the concentration for half-maximal inhibition (IC50) is 16 to 60 nM.
The figure for `CCc1cc(OC)cc2nc(-c3cccnc3N3CCN(CC4OCCO4)CC3)oc(=O)c12` [Compound 191] is under 15 nM; for `CCc1cc(OC)cc2nc(-c3cccnc3N3CC[C@@H](N4CCOCC4)C3)oc(=O)c12` [Compound 267] it is under 15 nM; for `COC(=O)[C@H]1CCCN1c1ncccc1-c1nc2cccc(OC)c2c(=O)o1` [Compound 43] it is over 150 nM.
The figure for `CN1CCN(c2ncccc2-c2nc3cccc(C(F)(F)F)c3c(=O)o2)CC1` [Compound 63] is 16 to 60 nM; for `COc1cc(C2CC2)c2c(=O)oc(-c3cccnc3N3CCN(CCN(C)C)CC3)nc2c1` [Compound 170] it is 61 to 150 nM.
The figure for `CCc1cc(OC)cc2nc(-c3cccnc3N3C[C@H](CNC4CC4)[C@@H](C)C3)oc(=O)c12` [Compound 260] is 16 to 60 nM; for `COc1cc(C2CC2)c2c(=O)oc(-c3cccnc3N3CCN(CC4CC4)CC3)nc2c1` [Compound 166] it is 61 to 150 nM.
With `C#CCN1CCN(c2ncccc2-c2nc3cc(OC)cc(CC)c3c(=O)o2)CC1` [Compound 233], the IC50 lay within 16 to 60 nM.
As for `CCc1cccc2nc(-c3cccnc3N3CC[N+](C)(Cc4ccc(OC)cc4)CC3)oc(=O)c12` [Compound 102], the IC50 is under 15 nM.
In the case of `CCc1cc(OC)cc2nc(-c3cccnc3N3CCC(c4c[nH]cn4)CC3)oc(=O)c12` [Compound 275] it was under 15 nM; in that of `CCc1cc(OC)cc2nc(-c3cccnc3N(C)CCN3CCCC3)oc(=O)c12` [Compound 237], under 15 nM; in that of `CCc1cc(OC)cc2nc(-c3cccnc3N3CC[C@@H](N4CCNC(=O)C4)C3)oc(=O)c12` [Compound 266], under 15 nM.
